Measurements taken from patent US10653694B2, “Cytotoxic compounds which are inhibitors of the polymerisation of tubulin” (CENTRE NATIONAL DE LA RECHERCHE SCIENTIFIQUE (CNRS), priority 2014, dated 2020).
Where two headings read alike, the source gives them in different places.

Experiments:
[1] = test system: K562 (chronic myeloid leukaemia); test: Cytotoxicity on K562 line (resazurin, 72 h); assay type: cell-based; settings: Homo sapiens
From the text: (§1) Brown oil, 89%. Rf 0.3 (Cyclohexane/EtOAc, 7/3). IR (neat, cm^−1): 1609, 1593, 1564, 1428, 1205, 1157. ^1H NMR (300 MHz, CDCl3): 8.08 (d, 1H, J=8.2 Hz), 7.90 (d, 1H, J=8.4 Hz), 7.77-7.72 (ddd, 1H, J=8.2 Hz, J=6.9 Hz, J=1.3 Hz), 7.44 (ddd, 1H, J=8.3 Hz, J=7.0 Hz, J=1.0 Hz), 6.49 (d, 2H, J=2.2 Hz), 6.27 (t, 1H, J=2.2 Hz), 4.90 (q, 1H, J=6.9 Hz), 3.73 (s, 6H), 2.91 (s, 3H), 1.78 (d, 3H, J=6.9 Hz). ^13C NMR (75 MHz, CDCl3): 171.8, 163.8, 161.0 (2C), 150.7, 146.9, 133.2, 128.5, 126.6, 124.7, 121.6, 106.2 (2C), 98.0, 55.4 (2C), 43.4, 26.9, 21.1. m/z MS (APCI^+): 309 (M+H)^+. Cytotoxicity Protocol. U87, H1299 and MDA-MB231 cells are grown in Dulbecco minimal essential medium (DMEM) containing 4.5 g/L glucose and supplemented with 10% foetal calf serum and 1% glutamine. K562 and HCT116 cells are grown in RPMI 1640 medium containing 10% foetal calf serum and 1% glutamine. All the cell lines are maintained in culture at 37° C. in a humid atmosphere containing 5% CO2. The cells are inoculated in 96-well culture plates in an amount of 5000 cells per well in 50 μL of culture medium. After 24 hours of culture, the molecule to be tested, dissolved in DMSO and diluted 1/1000 in suitable culture medium, is added in each well in an amount of 50 μL per well. After 72 hours of incubation, 20 μL of resazurin is added in each well. After 1 hour of incubation, emitted fluorescence is measured at 590 nm after excitation at 560 nm using the Victor fluorescence reader (Perkin-Elmer, USA). Each concentration is tested three times and each experiment is repeated three times. Protocol for Inhibition of Polymerisation of Tubulin. When tubulin is placed at a temperature of 0° C., it is in the form of free dimers. […] The IPT of the various synthesized analogues was determined on a soluble tubulin according to the method of Shelanski^7 from sheep brains where it constitutes 20 to 25% of soluble proteins. The “antitubulin” activity is evaluated according to the method of Gaskin^8 by measuring turbidity, which is proportional to the microtubule concentration in the suspension. Turbidity is measured by absorption of the suspension at 350 nm using a spectrophotometer fitted with a cell thermostatically-controlled at 37° C. The various samples were dissolved in DMSO and incubated 10 minutes at 37° C. then 5 minutes at 0° C. The tubulin assembly and disassembly curves are obtained by absorption kinetics at 350 nm as a function of time. The IC50 determined graphically is defined as the concentration of inhibitor necessary to decrease by 50% the maximum rate of assembly of the control tubulin. In Vitro Biological Study of Compounds of the Present Invention
(§2) Compounds I-15, I-16 and I-19 were also evaluated on a K562 chronic myeloid leukaemia line and a K562R imatinib-resistant chronic myeloid leukaemia line.

[2] = test system: H1299 (non-small-cell lung cancer); test: Cytotoxicity on H1299 line (resazurin, 72 h); assay type: cell-based; settings: Homo sapiens, NCI-H1299
From the text: as §1, §2

[3] = test system: HCT116 human cancer cell line (colorectal cancer); test: Cytotoxicity on HCT116 human cancer cell line (resazurin, 72 h); assay type: cell-based
From the text: as §1
The cytotoxic activity of the compounds was studied in vitro principally on the HCT116 human cancer cell line (colorectal cancer). The line selected for this study was incubated at 37° C. in the presence of one of the compounds added in the culture medium at various concentrations. The inhibitory concentration inducing the death of 50% of the cells (IC50) was determined after 72 hours of incubation (Table 1) for each compound. The set of experiments carried out made it possible to determine the degree of toxicity of the compounds tested by taking isoCA-4 as the reference. […] Lastly, when these first results are examined, it appears that the reduction of the double bond located between the two aromatic nuclei yields “reduced” type II derivatives about 10 times less cytotoxic than their precursors I as we had already noted during the reduction of isoCA-4 derivatives to isoerianin-type derivatives.

[4] = test system: tubulin; test: Inhibition of polymerisation of tubulin (IPT); assay type: biochemical, sheep
From the text: as §1
The most cytotoxic compounds were selected for tests of inhibition of polymerisation of tubulin. These tests were carried out under the direction of Dr J. Dubois at Gif-sur-Yvette, France. Tubulin is purified from ewe brains according to the method of Shelanski^9 by two assembly-disassembly cycles. The stock solution (15-20 mg/mL), stored at −196° C., is thawed and diluted in assembly buffer (0.1 M MES, 0.5 mM MgCl2, 1 mM EGTA, and 1 mM GTP, pH 6.6) to have a final concentration of 10 μM. Tubulin assembly is monitored by fluorescence on 96-well plates according to the method of Barron et al.^10 Inhibitor (DMSO, 1 μL) is added to the tubulin solution (10 μM, 100 μL per well) and the solution is incubated 45 minutes at room temperature. GTP (1 mM final) is then added, the solution is mixed rapidly and fluorescence (λex=350 nm, λem=440 nm) is measured on a Wallac Victor fluorometer (Perkin Elmer). The inhibition of 50% of the maximum rate of assembly (IC50) is determined in duplicate or triplicate on 10 concentrations bracketing the IC50.

[5] = test system: K562R imatinib-resistant chronic myeloid leukaemia line; test: Cytotoxicity on K562R line (72 h); assay type: cell-based; settings: Homo sapiens, K-562R; Table 2; 50% cell death after 72 hours of incubation
From the text: Brown oil, 89%. Rf 0.3 (Cyclohexane/EtOAc, 7/3). IR (neat, cm^−1): 1609, 1593, 1564, 1428, 1205, 1157. ^1H NMR (300 MHz, CDCl3): 8.08 (d, 1H, J=8.2 Hz), 7.90 (d, 1H, J=8.4 Hz), 7.77-7.72 (ddd, 1H, J=8.2 Hz, J=6.9 Hz, J=1.3 Hz), 7.44 (ddd, 1H, J=8.3 Hz, J=7.0 Hz, J=1.0 Hz), 6.49 (d, 2H, J=2.2 Hz), 6.27 (t, 1H, J=2.2 Hz), 4.90 (q, 1H, J=6.9 Hz), 3.73 (s, 6H), 2.91 (s, 3H), 1.78 (d, 3H, J=6.9 Hz). ^13C NMR (75 MHz, CDCl3): 171.8, 163.8, 161.0 (2C), 150.7, 146.9, 133.2, 128.5, 126.6, 124.7, 121.6, 106.2 (2C), 98.0, 55.4 (2C), 43.4, 26.9, 21.1. m/z MS (APCI^+): 309 (M+H)^+. Cytotoxicity Protocol. U87, H1299 and MDA-MB231 cells are grown in Dulbecco minimal essential medium (DMEM) containing 4.5 g/L glucose and supplemented with 10% foetal calf serum and 1% glutamine. K562 and HCT116 cells are grown in RPMI 1640 medium containing 10% foetal calf serum and 1% glutamine. All the cell lines are maintained in culture at 37° C. in a humid atmosphere containing 5% CO2. The cells are inoculated in 96-well culture plates in an amount of 5000 cells per well in 50 μL of culture medium. After 24 hours of culture, the molecule to be tested, dissolved in DMSO and diluted 1/1000 in suitable culture medium, is added in each well in an amount of 50 μL per well. […] After 1 hour of incubation, emitted fluorescence is measured at 590 nm after excitation at 560 nm using the Victor fluorescence reader (Perkin-Elmer, USA). […] The IPT of the various synthesized analogues was determined on a soluble tubulin according to the method of Shelanski^7 from sheep brains where it constitutes 20 to 25% of soluble proteins. The “antitubulin” activity is evaluated according to the method of Gaskin^8 by measuring turbidity, which is proportional to the microtubule concentration in the suspension. Turbidity is measured by absorption of the suspension at 350 nm using a spectrophotometer fitted with a cell thermostatically-controlled at 37° C. […]
as §2

[6] = in the presence of hepatocytes; cited from earlier work
[7] = K562, Table 2, 50% cell death after 72 hours of incubation, read-out: K562 IC50
[8] = range given jointly for K562 and H1299 lines, read-out: IC50 (cytotoxicity, K562)
[9] = Table 2, 50% cell death after 72 hours of incubation, read-out: H1299 IC50
[10] = range given jointly for K562 and H1299 lines, read-out: IC50 (cytotoxicity, H1299)
[11] = Homo sapiens, HCT-116, 72 hours of incubation, read-out: IC50 (cytotoxicity, HCT116)
[12] = Homo sapiens, HCT-116, Table 1, concentration inducing 50% cell death after 72 hours of incubation, read-out: HCT116 IC50
[13] = Table 3, inhibition of 50% of the maximum rate of assembly, tubulin 10 μM, read-out: IPT (IC50)
[14] = Homo sapiens, HCT-116, Table 2, 50% cell death after 72 hours of incubation, read-out: HCT116 IC50

Structure (SMILES)	IC50 [4, 13] [nM]	IC50 [1, 7] [nM]	IC50 [3, 11] [nM]	IC50 [3, 12] [nM]	also measured
C=C(c1ccc(OC)c(OC)c1)c1nc(C)nc2ccccc12 [Compound I-2, 4-[1-(3,4-Dimethoxy-phenyl)-vinyl]-2-methyl-quinazoline]	–	–	–	460	–
C=C(c1ccc(OC(F)(F)F)cc1)c1nc(C)nc2ccccc12 [Compound I-3, 2-Methyl-4-(1-(4-(trifluoromethoxy)phenyl)vinyl)quinazoline]	–	–	–	2300	–
C=C(c1ccc(OC)c(O)c1)c1nc(C)nc2ccccc12 [Compound I-6, 2-Methoxy-5-(1-(2-methylquinazolin-4-yl)vinyl)phenol]	–	–	< 20	10	IC50 ([4]; read-out: IC50 (inhibition of polymerisation of tubulin)): 600 nM
C=C(c1ccc(OC)c(OC)c1)c1nc(Cl)nc2ccccc12 [Compound I-11, 2-Chloro-4-[1-(3,4-dimethoxy-phenyl)-vinyl]-quinazoline]	–	–	–	700	–
C=C(c1cc(OC)c(OC)c(OC)c1)c1nc(Cl)nc2ccccc12 [Compound I-12, 2-Chloro-4-[1-(3,4,5-trimethoxy-phenyl)-vinyl]-quinazoline]	–	–	–	900	melting point: 135 to 136 °C
C=C(c1ccc(OC)cc1)c1cc(Cl)c2ccccc2n1 [Compound I-17, 4-Chloro-2-(1-(4-methoxyphenyl)vinyl)quinoline]	–	–	–	95	–
C=C(c1ccc(OC)cc1)c1nc(C)cc2ccccc12 [Compound I-18, 1-(1-(4-Methoxyphenyl)vinyl)-3-methylisoquinoline]	–	–	–	87	–
C=C(c1ccc(OC)cc1)c1cc(C)nc2ccccc12 [Compound I-19, 4-(1-(4-Methoxyphenyl)vinyl)-2-methylquinoline]	1090	17	< 20	≤ 1	IC50 [5]: 0.7 nM; IC50 ([3]; Table 2, 50% cell death after 72 hours of incubation, read-out: HCT116 IC50): ≤ 1 nM; cytotoxic activities (in words) ([3]; cell line not given): sub-nanomolar
COc1ccc(C(C)c2nc(C)nc3ccccc23)cc1 (centres unmarked) [II-1, 4-[1-(4-Methoxy-phenyl)-ethyl]-2-methyl-quinazoline]	–	–	–	250	–
COc1ccc(C(C)c2nc(C)nc3ccccc23)cc1OC (centres unmarked) [II-2, 4-[1-(3,4-Dimethoxy-phenyl)-ethyl]-2-methyl-quinazoline]	–	–	–	950	–
C=C(c1ccc(OC)c(O)c1)c1cc(OC)c(OC)c(OC)c1 [isoCA-4, Isocombretastatin A-4, reference compound]	1000	4	–	–	metabolized [6]: < 10%; IC50 [2, 9]: 5 nM; IC50 ([3]; Homo sapiens, HCT-116, 72 h, read-out: HCT116 IC50 (nM)): 2 nM

More lines, main results first:

IC50 [4, 13] [nM]	Structure (SMILES)	IC50 [1, 7] [nM]	IC50 [3, 11] [nM]	IC50 [3, 12] [nM]	also measured
1800	C=C(c1ccc(OC)cc1)c1nc(C)nc2ccccc12 [Compound I-1, 4-[1-(4-Methoxy-phenyl)-vinyl]-2-methyl-quinazoline]	34	40	38	IC50 [1, 8]: 22 to 38 nM; IC50 [2, 9]: 22 nM; IC50 [2, 10]: 22 to 38 nM
2900	C=C(c1ccc(SC)cc1)c1nc(C)nc2ccccc12 [Compound I-4, 2-Methyl-4-(1-(4-(methylthio)phenyl)vinyl)quinazoline]	–	–	52	–
1000	C=C(c1ccc(OC)c(F)c1)c1nc(C)nc2ccccc12 [Compound I-5, 4-[1-(3-Fluoro-4-methoxy-phenyl)-vinyl]-2-methyl-quinazoline]	–	< 20	18	–
2300	C=C(c1ccc(OC)c(N)c1)c1nc(C)nc2ccccc12 [Compound I-7, 2-Methoxy-5-(1-(2-methylquinazolin-4-yl)vinyl)aniline]	–	< 20	10	–
2200	C=C(c1ccc2ccccc2c1)c1nc(C)nc2ccccc12 [Compound I-8, 2-Methyl-4-(1-(naphthalen-2-yl)vinyl)quinazoline]	–	–	130	melting point: 113.6 °C
1900	C=C(c1ccc(OC)cc1)c1nc(Cl)nc2ccccc12 [Compound I-10, 2-Chloro-4-[1-(4-methoxy-phenyl)-vinyl]-quinazoline]	38	40	34	IC50 [1, 8]: 22 to 38 nM; IC50 [2, 9]: 25 nM; IC50 [2, 10]: 22 to 38 nM
1200	C=C(c1ccc(OC)c(C#CCO)c1)c1nc(C)nc2ccccc12 [Compound I-15, 3-(2-Methoxy-5-(1-(2-methylquinazolin-4-yl)vinyl)phenyl)prop-2-yn-1-ol]	8	< 20	–	IC50 [5]: ≤ 1 nM; IC50 [3, 14]: 1.5 nM
960	C=C(c1ccc(OC)cc1)c1cc(C#N)nc2ccccc12 [Compound I-16, 4-(1-(4-Methoxyphenyl)vinyl)quinoline-2-carbonitrile]	9	< 20	–	IC50 [5]: ≤ 1 nM; IC50 [3, 14]: 1.6 nM
